Measurements as given in US20240139189A1, “N6-ADENOSINE-[…] INHIBITORS IN CANCER TREATMENT” (priority 2021, published 2024).
≈ marks a conversion by molar mass, not a printed value.

How the values were obtained:
[1] = molecular target: METTL3 (Homo sapiens (Human), UniProt Q86U44); assay: TR-FRET biochemical assay (time resolved-Förster resonance energy transfer); conditions: for LLE (lipophilic ligand efficiency, pIC50-logP): calculated with DataWarrior; for potency reduction / loss: relative to parent compound
Source text: The bonds formed are depicted in red. The IC50 values refer to the biochemical assay based on time resolved-Forster resonance energy transfer (TR-FRET). B) Superimposition of compounds 1 (grey, from X-ray with METTL3, PDB code: 7NHI) and 2 (cyan, drawn in Pymol).

[2] = Rat liver microsomes
[3] = Kinetic solubility
[4] = in vitro; conditions: rat, microsomes
[5] = molecular target: METTL3/METTL14 (Homo sapiens (Human), UniProt Q86U44); assay: Protein thermal shift assay, METTL3/METTL14; conditions: read-out: ΔTm
[6] = IC50 data for N6-adenosine-methyltransferase

METTL3, sequence (Q86U44 whole entry, looked up): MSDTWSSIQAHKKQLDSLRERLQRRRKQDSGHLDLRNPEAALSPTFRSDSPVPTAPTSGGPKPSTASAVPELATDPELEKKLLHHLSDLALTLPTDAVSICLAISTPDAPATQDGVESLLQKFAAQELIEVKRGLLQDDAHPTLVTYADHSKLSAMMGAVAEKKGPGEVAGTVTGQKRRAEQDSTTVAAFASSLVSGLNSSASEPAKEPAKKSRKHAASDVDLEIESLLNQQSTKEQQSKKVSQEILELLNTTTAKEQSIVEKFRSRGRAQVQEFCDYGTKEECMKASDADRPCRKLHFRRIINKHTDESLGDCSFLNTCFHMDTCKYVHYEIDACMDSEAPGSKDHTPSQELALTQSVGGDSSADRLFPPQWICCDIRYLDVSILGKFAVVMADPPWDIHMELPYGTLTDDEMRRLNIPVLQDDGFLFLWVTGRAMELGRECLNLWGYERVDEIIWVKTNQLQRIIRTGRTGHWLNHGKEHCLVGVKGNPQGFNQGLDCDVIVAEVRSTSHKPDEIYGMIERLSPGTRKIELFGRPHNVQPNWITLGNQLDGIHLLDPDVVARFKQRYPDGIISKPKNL
METTL3, sequence (Q9HCE5 whole entry partner, looked up): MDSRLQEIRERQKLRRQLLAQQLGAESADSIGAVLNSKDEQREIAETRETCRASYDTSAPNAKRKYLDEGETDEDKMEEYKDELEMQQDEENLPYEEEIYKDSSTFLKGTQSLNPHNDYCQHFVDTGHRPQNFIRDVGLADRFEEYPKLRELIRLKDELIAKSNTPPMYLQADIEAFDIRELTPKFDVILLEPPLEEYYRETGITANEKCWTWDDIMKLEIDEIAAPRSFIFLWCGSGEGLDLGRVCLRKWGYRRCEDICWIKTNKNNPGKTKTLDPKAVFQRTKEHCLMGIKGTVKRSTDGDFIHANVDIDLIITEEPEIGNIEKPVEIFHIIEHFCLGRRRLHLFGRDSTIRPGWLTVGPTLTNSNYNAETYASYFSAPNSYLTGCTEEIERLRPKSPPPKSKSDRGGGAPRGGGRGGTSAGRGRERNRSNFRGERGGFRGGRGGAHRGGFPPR
METTL3/METTL14, sequence (Q86U44 whole entry, looked up): as the sequence (Q86U44 whole entry, looked up) above
METTL3/METTL14, sequence (Q9HCE5 whole entry partner, looked up): as the sequence (Q9HCE5 whole entry partner, looked up) above

Row | SMILES | LE (ligand efficiency) [1] | IC50 ([1]; TR-FRET assay) [nM] | LLE (lipophilic ligand efficiency, pIC50-logP) [1] | IC50 [1, 6] [nM] | other results
1 | CNc1cc(N2CCCC(O)(CNC(=O)c3ccc(CN4CCC(C)(C)CC4)cc3)C2)ncn1 (stereo not shown) [Compound 1] | 0.21 kcal.mol^-1.heavy atom count^-1 | 8200 | 2.5 |  | 
2 | CC1(C)CCN(Cc2ccc(C(=O)NC3CCN(c4cc(NCc5ccccc5)ncn4)CC3)cn2)CC1 [Compound 6] | 0.20 kcal.mol^-1.heavy atom count^-1 | 3600 | 1.7 |  | 
3 | CC1(C)CCN(Cc2ccc(N3CCOC4(CCN(c5cc(NCc6ccccc6)ncn5)CC4)C3)cn2)CC1 [Compound 7, N-Benzyl-6-(4-(6-((4,4-dimethylpiperidin-1-yl)methyl)pyridin-3-yl)-1-oxa-4,9-diazaspiro[5.5]undecan-9-yl)pyrimidin-4-amine] |  | 280 |  | 280 | 
4 | CC1(C)CCN(Cc2ccc(N3CC(=O)NC4(CCN(c5cc(NCc6ccccc6)ncn5)CC4)C3)cn2)CC1 [Compound 8, 9-(6-(Benzylamino)pyrimidin-4-yl)-4-(6-((4,4-dimethylpiperidin-1-yl)methyl)pyridin-3-yl)-1,4,9-triazaspiro[5.5]undecan-2-one] |  | 37 |  | 37 | 
5 | CC1(C)CCN(Cc2ccc(N3CC(=O)NC4(CCN(c5cc(NCc6ccccc6)ncn5)CC4)C3)cc2)CC1 [Compound 9, 9-(6-(Benzylamino)pyrimidin-4-yl)-4-(4-((4,4-dimethylpiperidin-1-yl)methyl)phenyl)-1,4,9-triazaspiro[5.5]undecan-2-one] |  | 26 |  | 26 | 
6 | CNc1cc(N2CC3(CN(c4ccc(CN5CCC(C)(C)CC5)cc4)CC(=O)N3)C2)ncn1 [Compound 11, 8-(4-((4,4-Dimethylpiperidin-1-yl)methyl)phenyl)-2-(6-(methylamino)pyrimidin-4-yl)-2,5,8-triazaspiro[3.5]nonan-6-one] | 0.26 kcal.mol^-1.heavy atom count^-1 | 440 | 4.5 | 440 | RLM t1/2 [2]: 70 min; potency reduction / loss [1]: 5 fold; Kinetic solubility [3]: 86 µM
7 | CNc1cc(N2CCC3(CC2)CN(c2ccc(CN4CCC(C)(C)CC4)cc2)C(=O)N3)ncn1 [Compound 12] | 0.23 kcal.mol^-1.heavy atom count^-1 | 1800 | 2.6 |  | potency reduction / loss [1]: 20 fold
8 | CN(C)c1cc(N2CCC3(CC2)CN(c2ccc(CN4CCC(C)(C)CC4)cc2)CC(=O)N3)ncn1 [Compound 14] | 0.23 kcal.mol^-1.heavy atom count^-1 | 970 | 3.2 |  | 
9 | CC(C)Nc1cc(N2CCC3(CC2)CN(c2ccc(CN4CCC(C)(C)CC4)cc2)CC(=O)N3)ncn1 [Compound 15, 4-(4-((4,4-Dimethylpiperidin-1-yl)methyl)phenyl)-9-(6-(isopropylamino)pyrimidin-4-yl)-1,4,9-triazaspiro[5.5]undecan-2-one] | 0.24 kcal.mol^-1.heavy atom count^-1 | 330 | 3.2 | 330 | 
10 | CC1(C)CCN(Cc2ccc(N3CC(=O)NC4(CCN(c5cc(NC6CC6)ncn5)CC4)C3)cc2)CC1 [Compound 16, 9-(6-(Cyclopropylamino)pyrimidin-4-yl)-4-(4-((4,4-dimethylpiperidin-1-yl)methyl)phenyl)-1,4,9-triazaspiro[5.5]undecan-2-one] |  | 84 |  | 84 | 
11 | CC1(C)CCN(Cc2ccc(N3CC(=O)NC4(CCN(c5ncnc6[nH]ccc56)CC4)C3)cc2)CC1 [Compound 17, 4-(4-((4,4-Dimethylpiperidin-1-yl)methyl)phenyl)-9-(7H-pyrrolo[2,3-d]pyrimidin-4-yl)-1,4,9-triazaspiro[5.5]undecan-2-one] |  | 61 |  | 61 | 
12 | CC1(C)CCN(Cc2ccc(N3CC(=O)NC4(CCN(c5ccnc6[nH]ccc56)CC4)C3)cc2)CC1 [Compound 18] | 0.20 kcal.mol^-1.heavy atom count^-1 | 4500 | 2.3 |  | potency reduction / loss [1]: 74 fold
13 | CC1(C)CCN(Cc2ccc(N3CC(=O)NC4(CCN(c5nc(Cl)nc6[nH]ccc56)CC4)C3)cc2)CC1 [Compound 19, 9-(2-Chloro-7H-pyrrolo[2,3-d]pyrimidin-4-yl)-4-(4-((4,4-dimethylpiperidin-1-yl)methyl)phenyl)-1,4,9-triazaspiro[5.5]undecan-2-one] | 0.28 kcal.mol^-1.heavy atom count^-1 | 24 | 3.9 | 24 | RLM t1/2 [2]: 32 min; half-life [4]: 32 min; Kinetic solubility [3]: 45 µM; solubility kinetic ([3]; kinetic from dmso stock): 45 µM (≈ 23.5 µg/mL)
14 | CNc1cc(N2CCC3(CC2)CN(c2ccc(CN4CCC(C)(C)CC4)cc2F)CC(=O)N3)ncn1 [Compound 20, 4-(4-((4,4-Dimethylpiperidin-1-yl)methyl)-2-fluorophenyl)-9-(6-(methylamino)pyrimidin-4-yl)-1,4,9-triazaspiro[5.5]undecan-2-one] |  | 38 |  | 38 | 
15 | CNc1cc(N2CCC3(CC2)CN(c2ccc(CN4CCC(C)(C)CC4)c(F)c2)CC(=O)N3)ncn1 [Compound 21, 4-(4-((4,4-Dimethylpiperidin-1-yl)methyl)-3-fluorophenyl)-9-(6-(methylamino)pyrimidin-4-yl)-1,4,9-triazaspiro[5.5]undecan-2-one] |  | 32 |  | 32 | 
16 | CNc1cc(N2CCC3(CC2)CN(c2cc(F)c(CN4CCC(C)(C)CC4)cc2F)CC(=O)N3)ncn1 [Compound 22, 4-(4-((4,4-Dimethylpiperidin-1-yl)methyl)-2,5-difluorophenyl)-9-(6-(methylamino)pyrimidin-4-yl)-1,4,9-triazaspiro[5.5]undecan-2-one] |  |  |  |  | ΔTm at 100 µM [5]: 4.7 °C
17 | Nc1ncnc2c1ncn2[C@@H]1O[C@H](CSCC[C@H](N)C(=O)O)[C@@H](O)[C@H]1O [SAH, S-adenosyl-L-homocysteine, reference compound] |  |  |  |  | ΔTm at 100 µM [5]: 2.8 °C
